Targets include Cytochrome P450 2C9 (Homo sapiens, UniProt P11712); Cytochrome P450 2D6 (Homo sapiens, UniProt P10635); Cytochrome P450 3A4 (Homo sapiens, UniProt P08684).
The next data set deals with T1, Cytochrome P450 1A2 (Homo sapiens, UniProt P05177).
T1 sequence (P05177 whole entry): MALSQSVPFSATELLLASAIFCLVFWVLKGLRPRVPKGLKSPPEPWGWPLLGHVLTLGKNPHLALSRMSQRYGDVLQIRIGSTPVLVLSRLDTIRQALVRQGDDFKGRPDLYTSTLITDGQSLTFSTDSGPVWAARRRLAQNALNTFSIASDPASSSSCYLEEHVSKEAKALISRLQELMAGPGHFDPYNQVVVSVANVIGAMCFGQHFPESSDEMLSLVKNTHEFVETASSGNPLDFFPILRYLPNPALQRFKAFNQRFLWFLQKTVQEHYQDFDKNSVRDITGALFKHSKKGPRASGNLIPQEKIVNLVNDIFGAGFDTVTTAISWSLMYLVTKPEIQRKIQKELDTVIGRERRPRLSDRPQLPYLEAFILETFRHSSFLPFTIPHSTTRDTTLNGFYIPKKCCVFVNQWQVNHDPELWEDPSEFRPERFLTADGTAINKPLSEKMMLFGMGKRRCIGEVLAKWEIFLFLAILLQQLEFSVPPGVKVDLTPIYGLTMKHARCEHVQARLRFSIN

The target of data set [1] is T2, Corticotropin-releasing factor receptor 2/Corticotropin-releasing factor-binding protein (Homo sapiens, UniProt P24387+Q13324).
T2 sequence (Q13324 whole entry): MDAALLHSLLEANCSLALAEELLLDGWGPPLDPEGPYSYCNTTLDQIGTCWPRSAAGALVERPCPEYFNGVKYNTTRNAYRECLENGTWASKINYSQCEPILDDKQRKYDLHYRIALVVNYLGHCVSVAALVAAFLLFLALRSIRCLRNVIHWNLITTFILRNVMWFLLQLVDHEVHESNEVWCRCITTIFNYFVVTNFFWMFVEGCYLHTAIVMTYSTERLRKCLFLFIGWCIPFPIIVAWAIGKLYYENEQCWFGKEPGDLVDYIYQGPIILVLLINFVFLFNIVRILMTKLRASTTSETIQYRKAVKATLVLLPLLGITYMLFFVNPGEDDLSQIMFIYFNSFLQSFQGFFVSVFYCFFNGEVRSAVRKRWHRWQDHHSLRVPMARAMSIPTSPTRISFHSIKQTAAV
T2 sequence (P24387 whole entry): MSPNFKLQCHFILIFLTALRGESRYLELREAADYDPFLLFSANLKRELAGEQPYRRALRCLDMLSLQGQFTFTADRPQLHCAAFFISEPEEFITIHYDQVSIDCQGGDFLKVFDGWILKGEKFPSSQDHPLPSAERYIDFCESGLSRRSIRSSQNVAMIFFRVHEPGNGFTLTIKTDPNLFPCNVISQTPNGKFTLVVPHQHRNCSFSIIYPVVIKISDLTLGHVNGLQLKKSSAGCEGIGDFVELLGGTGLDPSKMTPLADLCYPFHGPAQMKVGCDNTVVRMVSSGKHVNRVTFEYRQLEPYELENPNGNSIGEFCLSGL
In words: Dose Response confirmation of uHTS hits for small molecule antagonists of the CRF-binding protein and CRF-R2 receptor complex. The class given is functional. The note with it: read-out: IC50_Mean.

For data set [2], the target named is T2, Corticotropin-releasing factor receptor 2/Corticotropin-releasing factor-binding protein. Kind of data set: activators of CRF receptor 2 with binding protein – uHTS hits, confirmation (AID 602473). The class given is functional. The settings on record: read-out: EC50_Mean.
A short description of data set [3]: blockers of CRF-binding protein–CRF-R2 complex – cell-based, uHTS hits, 384-well, dose response (AID 651639). The class given is functional, Homo sapiens. The settings on record: read-out: IC50_Mean.
For a further data set, the system named is Vero. Kind of data set: viability of Vero cells under compound – cytotoxicity control for flavivirus capping enzyme inhibitors (AID 588742). The class given is functional. The note with it: Chlorocebus sabaeus.
The target of the next data set is Genome polyprotein (dengue virus type 2, UniProt P29990). Kind of data set: flavivirus cap methylation enzyme inhibition – biochemical, confirmation dose response, primary screen (AID 588689). The data set is classed as functional.
The target in a further data set is Beta-galactosidase (Escherichia coli, UniProt Q8VNN2). Kind of data set: PubChem AID 485352. The data set is classed as functional.
The target of data set [4] is T3, Type-1 angiotensin II receptor (Homo sapiens, UniProt P30556).
T3 sequence (P30556 whole entry): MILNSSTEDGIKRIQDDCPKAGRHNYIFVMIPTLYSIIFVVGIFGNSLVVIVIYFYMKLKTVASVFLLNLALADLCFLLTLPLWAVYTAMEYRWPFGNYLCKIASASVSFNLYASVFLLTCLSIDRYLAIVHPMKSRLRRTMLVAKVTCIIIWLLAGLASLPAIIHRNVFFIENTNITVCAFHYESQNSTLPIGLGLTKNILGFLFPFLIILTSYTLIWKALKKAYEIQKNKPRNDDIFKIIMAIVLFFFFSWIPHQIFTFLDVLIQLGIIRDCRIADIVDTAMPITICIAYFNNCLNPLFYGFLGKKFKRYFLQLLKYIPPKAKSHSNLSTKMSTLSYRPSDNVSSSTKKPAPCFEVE
Kind of data set: antagonism of angiotensin II type 1 receptor – cell-based, uHTS hits, selectivity assay for APJ receptor antagonist project, dose response (AID 463214).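 Also: antagonist potency against angiotensin II stimulated AT1 response.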 The data set is classed as functional.

A further data set concerns HEK293. Kind of data set: EBV LMP1 TES2 canonical NF-kB signalling blockers – cell-based, HEK293, luciferase, cherry-pick, dose response (AID 588343). The settings on record: Homo sapiens. The class given is functional.
Data set [5] has as its system BJ. Kind of data set: BJ-TERT fibroblast viability loss – cell-based, RAS-independent, luminescence, dose response (AID 1933). The data set is classed as functional. The settings on record: Homo sapiens.
The subject of data set [6] is BJ. In words: cells. The data set is classed as functional, cell-based. The note with it: Homo sapiens.
Data set [7] relates to BJ. In words: BJ-TERT-LT-ST fibroblast viability loss – cell-based, RAS-independent, luminescence, dose response (AID 1935).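 Also: BJ fibroblasts immortalized with TERT plus LT and ST oncogenes.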 The settings on record: Homo sapiens. The data set is classed as functional.
Data set [8] is described as follows: DRD fibroblast viability loss – cell-based, non-viral oncogenic, luminescence, dose response (AID 1934). The class given is functional. The note with it: Homo sapiens.
The target in data set [9] is NAD-dependent protein deacylase sirtuin-5, mitochondrial (Homo sapiens, UniProt Q9NXA8). In words: sirtuin-5 deacylation blockers, concentration series – biochemical, fluorescence imaging, cherry-pick, set 5, dose response (AID 720591).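 Also: desuccinylation of succinyl peptide AMC substrate read as fluorescence after trypsin release; potency of inhibitors that lower fluorescence and may act on trypsin instead.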
The target of another data set is Cytochrome P450 2C19 (Homo sapiens, UniProt P33261). In words: Cytochrome panel assay with activity outcomes. Panel member name: p450-cyp2c19 Compounds with AC50 equal or less than 10 uM are considered active. The class given is functional. The settings on record: read-out: AC50.
For data set [10], the target named is T4, Rac GTPase-activating protein 1 (Homo sapiens, UniProt Q9H0H5).
T4 sequence (Q9H0H5 whole entry): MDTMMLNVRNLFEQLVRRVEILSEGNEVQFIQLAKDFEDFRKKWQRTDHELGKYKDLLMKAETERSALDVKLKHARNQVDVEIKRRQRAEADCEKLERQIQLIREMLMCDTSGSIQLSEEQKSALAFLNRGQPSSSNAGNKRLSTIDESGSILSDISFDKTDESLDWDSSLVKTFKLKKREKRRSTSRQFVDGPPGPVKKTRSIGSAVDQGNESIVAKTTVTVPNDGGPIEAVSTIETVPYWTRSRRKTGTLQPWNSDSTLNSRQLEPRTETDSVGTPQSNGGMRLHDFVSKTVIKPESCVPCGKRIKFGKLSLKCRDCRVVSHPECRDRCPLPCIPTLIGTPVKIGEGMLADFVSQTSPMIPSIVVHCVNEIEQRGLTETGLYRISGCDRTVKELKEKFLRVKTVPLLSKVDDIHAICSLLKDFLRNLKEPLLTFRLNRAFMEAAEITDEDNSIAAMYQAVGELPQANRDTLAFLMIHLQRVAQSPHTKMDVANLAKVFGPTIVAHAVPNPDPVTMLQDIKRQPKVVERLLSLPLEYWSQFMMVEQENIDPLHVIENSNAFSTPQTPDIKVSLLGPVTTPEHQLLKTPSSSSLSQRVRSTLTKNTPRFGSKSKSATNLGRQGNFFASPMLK
Kind of data set: blockers of MgcRacGAP-driven Rac1 GTP hydrolysis – biochemical, ADP Hunter fluorescence, primary and confirmatory, confirmation (AID 624330). The data set is classed as functional.

Data set [11] is described as follows: blockers of HIV-1 envelope-mediated cell-cell fusion – cherry-pick, dose response (AID 652057). The class given is functional, cell-based.
Data set [12] is described as follows: viability loss in CEM21 cells – cell-based, CellTiter-Glo luminescence, cherry-picked, cytotoxicity control for viral fusion inhibitor project, dose response (AID 652042).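 Also: potency for signal decrease meaning cytotoxicity.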 The data set is classed as functional.
A short description of data set [13]: blockers of HIV-1 ZM109 envelope-driven cell-cell fusion – HeLa effector, CEM target cells, luciferase, cherry-pick, dose response (AID 652058).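 Also: luciferase signal from HIV-1 Env mediated cell-cell fusion of effector and target cells.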 The data set is classed as functional, cell-based.
Data set [14] can be described thus: off-target signal loss in HeLa-CEM21 co-culture – HeLa F-luc CTL cells, cherry-picked, counter-screen for HIV-1 Env fusion inhibitor project, dose response (AID 652040).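 Also: potency for signal decrease marking cytotoxic or nonspecific inhibition.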 The data set is classed as functional, cell-based.
The nature of data set [15]: HIV-1 AD8 envelope cell-cell fusion blockers – cherry-pick, dose response (AID 652062).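 Also: luciferase signal from cell-cell fusion driven by HIV-1 clade B AD8 Env; potency is for inhibitors of fusion seen as a drop in luminescence.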 The data set is classed as functional, cell-based.

We go through 20 compounds from ChEMBL document CHEMBL1201862, “PubChem BioAssay data set” (2004).

Structures are written as SMILES. Activity calls are given as the source filed them.

Sequence of NAD-dependent protein deacylase sirtuin-5, mitochondrial (Q9NXA8 whole entry): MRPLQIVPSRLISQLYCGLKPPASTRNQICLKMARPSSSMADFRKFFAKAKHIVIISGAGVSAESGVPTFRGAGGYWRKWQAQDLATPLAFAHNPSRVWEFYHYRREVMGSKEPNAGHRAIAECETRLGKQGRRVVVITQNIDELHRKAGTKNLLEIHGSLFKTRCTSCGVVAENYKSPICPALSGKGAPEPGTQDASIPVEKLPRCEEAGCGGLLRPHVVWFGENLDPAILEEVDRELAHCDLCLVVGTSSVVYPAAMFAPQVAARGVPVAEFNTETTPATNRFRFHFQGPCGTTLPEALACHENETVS
Sequence of Cytochrome P450 2C9 (P11712 whole entry): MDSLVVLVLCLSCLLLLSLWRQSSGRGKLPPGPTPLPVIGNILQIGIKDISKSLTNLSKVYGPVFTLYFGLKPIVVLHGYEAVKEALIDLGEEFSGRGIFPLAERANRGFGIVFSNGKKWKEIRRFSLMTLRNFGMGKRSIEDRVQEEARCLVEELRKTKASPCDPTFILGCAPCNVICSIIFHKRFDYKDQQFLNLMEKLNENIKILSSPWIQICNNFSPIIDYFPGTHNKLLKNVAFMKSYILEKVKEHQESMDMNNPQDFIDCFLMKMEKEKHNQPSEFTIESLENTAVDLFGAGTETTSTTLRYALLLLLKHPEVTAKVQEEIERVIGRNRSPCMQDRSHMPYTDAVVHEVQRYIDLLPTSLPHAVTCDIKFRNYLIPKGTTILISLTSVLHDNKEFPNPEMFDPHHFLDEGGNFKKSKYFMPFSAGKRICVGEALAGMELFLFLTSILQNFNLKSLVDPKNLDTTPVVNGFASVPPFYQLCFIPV
Sequence of Genome polyprotein (P29990 2492-3391 limits assumed): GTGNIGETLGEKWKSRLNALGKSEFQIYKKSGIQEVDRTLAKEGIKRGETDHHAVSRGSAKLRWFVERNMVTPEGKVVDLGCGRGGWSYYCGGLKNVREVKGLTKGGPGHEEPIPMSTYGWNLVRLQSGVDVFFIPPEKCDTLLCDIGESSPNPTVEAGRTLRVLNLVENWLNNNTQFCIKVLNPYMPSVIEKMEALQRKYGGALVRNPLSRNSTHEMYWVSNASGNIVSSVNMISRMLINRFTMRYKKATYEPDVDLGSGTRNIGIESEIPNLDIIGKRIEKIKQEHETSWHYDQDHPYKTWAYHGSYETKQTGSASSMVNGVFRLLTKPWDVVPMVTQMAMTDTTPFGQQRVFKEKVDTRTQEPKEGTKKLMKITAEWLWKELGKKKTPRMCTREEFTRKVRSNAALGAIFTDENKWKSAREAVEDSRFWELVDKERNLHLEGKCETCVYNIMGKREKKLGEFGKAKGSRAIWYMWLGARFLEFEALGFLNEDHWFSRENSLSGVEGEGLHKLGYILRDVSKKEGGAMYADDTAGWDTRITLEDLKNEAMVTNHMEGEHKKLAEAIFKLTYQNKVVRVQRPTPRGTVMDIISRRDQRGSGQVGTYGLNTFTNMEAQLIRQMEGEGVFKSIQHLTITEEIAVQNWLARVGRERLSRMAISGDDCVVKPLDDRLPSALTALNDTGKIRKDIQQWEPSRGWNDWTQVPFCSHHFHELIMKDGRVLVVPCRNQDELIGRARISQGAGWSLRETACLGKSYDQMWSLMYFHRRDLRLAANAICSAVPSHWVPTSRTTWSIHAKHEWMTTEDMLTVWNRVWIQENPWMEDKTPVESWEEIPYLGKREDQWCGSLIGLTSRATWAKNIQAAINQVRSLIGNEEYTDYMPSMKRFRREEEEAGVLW
Sequence of Beta-galactosidase (Q8VNN2 whole entry): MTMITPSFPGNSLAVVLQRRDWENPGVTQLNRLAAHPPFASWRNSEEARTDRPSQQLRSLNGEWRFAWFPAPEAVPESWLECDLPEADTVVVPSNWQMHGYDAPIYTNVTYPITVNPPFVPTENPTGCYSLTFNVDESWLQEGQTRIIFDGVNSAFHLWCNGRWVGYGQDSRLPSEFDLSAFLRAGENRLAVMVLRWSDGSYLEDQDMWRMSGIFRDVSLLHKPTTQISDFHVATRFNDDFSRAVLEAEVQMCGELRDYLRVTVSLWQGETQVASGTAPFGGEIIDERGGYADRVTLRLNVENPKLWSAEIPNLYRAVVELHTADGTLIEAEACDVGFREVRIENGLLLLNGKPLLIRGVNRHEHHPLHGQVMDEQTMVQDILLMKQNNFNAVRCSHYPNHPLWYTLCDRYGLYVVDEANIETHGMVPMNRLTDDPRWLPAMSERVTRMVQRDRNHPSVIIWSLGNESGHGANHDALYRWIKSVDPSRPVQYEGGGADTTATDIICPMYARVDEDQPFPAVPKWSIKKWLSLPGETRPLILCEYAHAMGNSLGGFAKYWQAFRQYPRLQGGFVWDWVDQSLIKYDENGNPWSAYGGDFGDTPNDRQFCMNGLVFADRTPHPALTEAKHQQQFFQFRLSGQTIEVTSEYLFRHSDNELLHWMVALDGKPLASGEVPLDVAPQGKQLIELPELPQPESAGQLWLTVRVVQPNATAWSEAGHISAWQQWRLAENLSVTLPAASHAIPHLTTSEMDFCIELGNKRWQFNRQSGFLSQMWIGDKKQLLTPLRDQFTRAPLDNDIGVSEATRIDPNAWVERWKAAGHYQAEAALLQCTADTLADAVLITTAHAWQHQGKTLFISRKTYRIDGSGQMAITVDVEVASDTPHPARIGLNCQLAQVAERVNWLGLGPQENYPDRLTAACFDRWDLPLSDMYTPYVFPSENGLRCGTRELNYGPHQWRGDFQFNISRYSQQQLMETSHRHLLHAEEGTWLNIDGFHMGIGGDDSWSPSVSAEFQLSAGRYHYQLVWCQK
Sequence of Cytochrome P450 2D6 (P10635 whole entry): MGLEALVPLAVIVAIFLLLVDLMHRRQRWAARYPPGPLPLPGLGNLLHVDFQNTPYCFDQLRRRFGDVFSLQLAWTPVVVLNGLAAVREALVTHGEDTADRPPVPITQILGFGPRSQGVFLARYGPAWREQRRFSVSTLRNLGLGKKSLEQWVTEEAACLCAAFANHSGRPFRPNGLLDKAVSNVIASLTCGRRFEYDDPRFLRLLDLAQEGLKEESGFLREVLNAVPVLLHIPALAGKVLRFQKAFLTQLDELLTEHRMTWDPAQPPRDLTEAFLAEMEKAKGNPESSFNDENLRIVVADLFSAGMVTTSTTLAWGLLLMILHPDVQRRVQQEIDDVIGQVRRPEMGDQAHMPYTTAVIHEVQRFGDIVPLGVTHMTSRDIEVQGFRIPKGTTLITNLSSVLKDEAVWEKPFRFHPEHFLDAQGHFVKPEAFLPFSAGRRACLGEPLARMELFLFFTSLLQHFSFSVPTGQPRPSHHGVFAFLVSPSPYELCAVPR
Sequence of Cytochrome P450 2C19 (P33261 whole entry): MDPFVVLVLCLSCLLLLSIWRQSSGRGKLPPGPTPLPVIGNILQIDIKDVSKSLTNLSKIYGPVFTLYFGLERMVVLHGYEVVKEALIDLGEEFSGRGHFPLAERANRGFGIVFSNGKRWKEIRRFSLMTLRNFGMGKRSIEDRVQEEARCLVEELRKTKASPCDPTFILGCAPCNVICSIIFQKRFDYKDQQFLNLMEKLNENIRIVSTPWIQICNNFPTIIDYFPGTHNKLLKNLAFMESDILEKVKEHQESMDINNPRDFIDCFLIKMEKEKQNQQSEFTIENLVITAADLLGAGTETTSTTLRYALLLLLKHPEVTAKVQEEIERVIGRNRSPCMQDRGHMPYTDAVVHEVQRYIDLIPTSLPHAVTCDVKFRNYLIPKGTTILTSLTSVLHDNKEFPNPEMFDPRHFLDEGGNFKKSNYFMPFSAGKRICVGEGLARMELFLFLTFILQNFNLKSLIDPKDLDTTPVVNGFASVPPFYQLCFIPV
Sequence of Cytochrome P450 3A4 (P08684 whole entry): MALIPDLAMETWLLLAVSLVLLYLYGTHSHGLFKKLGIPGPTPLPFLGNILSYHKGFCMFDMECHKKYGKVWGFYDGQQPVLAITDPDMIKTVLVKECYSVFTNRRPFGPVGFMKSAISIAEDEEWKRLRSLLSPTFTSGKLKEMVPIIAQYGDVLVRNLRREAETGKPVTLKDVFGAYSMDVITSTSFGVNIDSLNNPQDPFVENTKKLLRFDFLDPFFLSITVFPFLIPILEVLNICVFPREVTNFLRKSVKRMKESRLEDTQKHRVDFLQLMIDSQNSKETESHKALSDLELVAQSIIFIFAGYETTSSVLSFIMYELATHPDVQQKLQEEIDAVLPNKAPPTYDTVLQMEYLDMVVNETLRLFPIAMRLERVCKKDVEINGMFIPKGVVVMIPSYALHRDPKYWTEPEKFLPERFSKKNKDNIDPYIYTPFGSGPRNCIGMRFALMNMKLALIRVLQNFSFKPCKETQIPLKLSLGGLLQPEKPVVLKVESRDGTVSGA

On to `O=C(c1coc(=O)c2ccccc12)N1CCN(Cc2ccccc2)CC1`, for which the AC50 on Cytochrome P450 1A2 is 10 µM (inconclusive); at Cytochrome P450 2C9, “inconclusive”.

Take `Cc1nn(Cc2ccccc2)c(Cl)c1C(=O)NC1CCCc2ccccc21` (configuration not stated): the IC50 in data set [1] was 6.77 µM (active); in data set [3], 11.9 µM (active). In addition, the EC50 in [2] is > 53 µM (inactive).

Consider `CCOC(=O)c1sc(N2N=C(C)/C(=C\c3ccc(OCC(=O)OC)cc3)C2=O)nc1C`, for which the CC50 in the data set with Vero was 39.2 µM (active). Also, the IC50 at Genome polyprotein was 90.7 µM (active).

As for `CCCCNC(=S)NNC(=O)CCn1nc(C)c(Br)c1C`, the EC50 on Beta-galactosidase was > 40 µM (inactive). Further, the IC50 in data set [4] is on record as > 40 µM (not active). Also, the AC50 result on Cytochrome P450 2C9 was “inconclusive”.

On to `CN(C)c1ccnc2sc(C(N)=O)c(N)c12`, for which the AC50 in the data set with HEK293 is 3.08 µM (active).

Take `Clc1ccccc1NN(Cc1ccncc1)c1ccccc1Cl`: the IC50 in data set [1] is < 0.368 µM (active); in data set [3], > 20 µM (inactive). Besides, the EC50 in [2] is > 53 µM (inactive). Moreover, the AC50 at Cytochrome P450 2D6 was 3.16 µM (inconclusive).

Regarding `CC(C)OC(=O)c1ccccc1C(=O)c1ccc(N)c([N+](=O)[O-])c1`, the EC50 is > 150 µM (not active) in the data set on BJ [5]; > 150 µM (not active) in the data set on BJ [6]; > 150 µM (not active) with BJ [7]; > 150 µM (not active) in data set [8]; > 53 µM (inactive) in data set [2]. In addition, the IC50 is 38.6 µM (active) in data set [1] and > 20 µM (inactive) in data set [3].

In the case of `COc1ccc(C(=O)Nc2cc(O)nc3ncnn23)cc1`, the AC50 in [9] is 8.75 µM (active).

`Cc1cccc(Oc2coc3cc(OC(=O)c4cc5ccccc5oc4=O)ccc3c2=O)c1`: the AC50 at Cytochrome P450 2C19 was 25.1 µM (inconclusive); on Cytochrome P450 3A4, 39.8 µM (inconclusive); on Cytochrome P450 2C9, “inconclusive”.

For the compound `C=CCc1cc(OC)ccc1OCCN1CC(C)OC(C)C1` (configuration not stated), the IC50 in [10] is 70.5 µM (active). In addition, the AC50 in data set [9] was > 30 µM (inactive).

Turning to `Cc1ccc(OCC(=O)NNC(=S)NC(=O)C2CCCCC2)c(C)c1`, in the data set on HEK293, the AC50 is 39.5 µM (active).

In the case of `Cc1ccc(NC(=O)CSc2nnc(Cn3cnc4ccccc43)o2)c(C)c1`, the IC50 in data set [1] is 5.69 µM (active); in [3], > 20 µM (inactive). In addition, in [2], the EC50 was > 53 µM (inactive).

In the case of `CCCCN(C)C(=O)c1coc(=O)c2ccccc12`, the figures for the AC50 at Cytochrome P450 1A2 and on Cytochrome P450 2C9 were 2.51 µM (inconclusive) and “inconclusive”, respectively.

For the compound `O=C1c2ccccc2C(=O)c2cc(N3CCCCC3)ccc21`, the AC50 in the data set on HEK293 was 1.3 µM (active).

On to `COc1ccccc1CNC(=O)C1CCC(CNS(=O)(=O)c2ccc(F)cc2)CC1` (configuration not stated), for which, in data set [9], the AC50 is > 30 µM (inactive).

Consider `COc1ccc(S(=O)(=O)N2CCN(C(S)=NCC3CCCO3)CC2)cc1OC` (configuration not stated), for which the AC50 in the data set on HEK293 is 268 µM (active).

For the compound `COc1cc(OC)nc(Nc2nc(C(N)COCc3ccccc3)cs2)n1` (configuration not stated), the concentration at half-maximal activity (AC50) was 3.75 µM (active) in [11]; 28.3 µM (active) in data set [12]; 4.17 µM (active) in data set [13]; 4.69 µM (active) in [14]; 5.29 µM (active) in data set [15].

On to `Cc1ccc(-c2ccc3c(c2)O[C@H](CN(C)Cc2cccnc2)[C@@H](C)CN([C@H](C)CO)S3(=O)=O)cc1`, for which the results for the AC50 in data set [11], in data set [12] and in [15] were 27 µM (active), 13.7 µM (active) and 23.8 µM (active), respectively.

For `O=C(c1[nH]c(C(F)(F)F)nc1-c1ccccc1)N1CCCN(Cc2ccc(F)cc2)CC1`, in [9], the AC50 was > 30 µM (inactive).

Regarding `C/C(=N\NC(=O)CNc1cccc2ccccc12)c1ccc(Br)s1`, the CC50 with Vero was > 40 µM (active).
